Experimental findings from patent US12410155B2, “Salt form and crystal form of tetrahydrocyclohepta indazole compound” (Zhejiang Yangli Pharmaceutical Technology Co., Ltd., priority 2021, dated 2025) are described below.

Test [1] deals with T1, Estrogen receptor α (ERα) (Homo sapiens, UniProt P03372).
T1 construct: host or cells: insect Sf9 cells
T1 sequence (P03372 1-595): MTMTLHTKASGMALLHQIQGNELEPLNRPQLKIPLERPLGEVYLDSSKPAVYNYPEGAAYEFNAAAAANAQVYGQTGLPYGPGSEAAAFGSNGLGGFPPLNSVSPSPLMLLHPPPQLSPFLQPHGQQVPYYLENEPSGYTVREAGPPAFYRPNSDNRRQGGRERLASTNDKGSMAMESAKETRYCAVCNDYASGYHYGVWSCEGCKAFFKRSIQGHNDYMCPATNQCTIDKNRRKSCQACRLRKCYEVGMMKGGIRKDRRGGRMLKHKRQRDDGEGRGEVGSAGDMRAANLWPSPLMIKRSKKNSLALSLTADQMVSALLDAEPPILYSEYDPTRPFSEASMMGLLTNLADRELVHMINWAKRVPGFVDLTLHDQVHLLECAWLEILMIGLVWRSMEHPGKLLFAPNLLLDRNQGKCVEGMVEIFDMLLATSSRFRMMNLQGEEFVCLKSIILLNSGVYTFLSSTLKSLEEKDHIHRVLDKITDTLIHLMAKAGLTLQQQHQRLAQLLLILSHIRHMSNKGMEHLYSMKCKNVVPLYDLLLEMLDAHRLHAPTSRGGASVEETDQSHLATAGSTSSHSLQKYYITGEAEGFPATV
In words: ERα binding assay (radioactive ligand binding). Here is the method:
(1) ERα Binding Assay: Assessment of the Activity of the Compound of Formula (I) Via Radioactive Ligand Binding Assay
The method employed in this study was adopted from scientific literature (Obourn, J. D. et al., Biochemistry, 1993, 32, 6229-6236).
The IC50 values were obtained using MathIQ™ software (ID Business Solutions Ltd., UK) employing a nonlinear, least-squares regression method. The presented inhibition constant (Ki) was calculated using the Cheng and Prusoff equation (Cheng, Y., Prusoff, W. H., Biochem. Pharmacol. 22:3099-3108, 1973) based on the experimentally determined IC50 of the test compound, the concentration of the radioactive ligand used in the assay, and the historical value of the ligand's KD (determined experimentally by Eurofins Panlabs, Inc.). As shown, the Hill coefficient (nH), which defines the slope of the competitive binding curve, was calculated using MathIQ™.

The subject of the next test is MDA-MB-134VI cells. Kind of test: MDA-MB-134VI cell proliferation inhibition assay (CTG). The test is classed as cell-based. To be noted: Homo sapiens, 240 h, 10 days. The procedure: (5) HCC1428 and MDA-MB-134VI Cell Proliferation Inhibition Assay
The initial concentration of the compound of formula (I) was set at 200 nM, followed by 4-fold serial dilutions to achieve ten concentration gradients.
• 1) MDA-MB-134VI cells were cultured in DMEM complete growth medium containing 20% FBS and 1% PenStrep. • 2) When the cells in a T75 culture flask reached 80-90% cell fusion, they were digested with trypsin and collected. The cell passages used were the eighth generation for the first independent experiment and the sixth generation for the second independent experiment. • 3) The cells were centrifuged at 1000 rpm, resuspended in complete medium, and counted. The cell densities were 3.60×10^6 cells/mL for the first experiment and 1.93×10^6 cells/mL for the second experiment, with viability both exceeding 95%. • 4) Cell suspensions were prepared in complete medium at a density of 4.00×10^4 cells/mL for both experiments. […] 100 μL of CellTiter-Glo® reagent was added to each well. The plates were incubated at room temperature in the dark for 30 minutes. • 8) Luminescence values were read using a BMG plate reader.
The IC50 (half-maximal inhibitory concentration) of the compound was obtained using the following nonlinear fitting formula: […]

SMILES strings stand for the structures.

Regarding `FCCCN1CC[C@H](Nc2cnc(C3=C(CC(F)(F)F)CCCc4c3ccc3[nH]nc(F)c43)cn2)C1` [Compound of formula (I)], the “nH (Hill coefficient)” value in test [1] worked out at 1.22. For the same compound, the IC50 (in general, the midpoint of a concentration-inhibition curve) was found to be 0.36 nM in test [1] (0.5 nM [3H] estradiol), 0.12 nM in the test with MDA-MB-134VI cells (First experiment), 0.31 ± 0.26 nM with MDA-MB-134VI cells (Mean ± SD) and 0.49 nM in the test on MDA-MB-134VI cells (Second experiment). In test [1] (Cheng and Prusoff equation), the Ki – broadly, a measure of affinity in units of concentration, obtained from inhibition or displacement – is 0.1 nM. The inhibition (usually the drop in the measured response relative to a control, in per cent) at 12.8 pM in test [1] (concentration 12.8 pM, read-out: Inhibition rate (%)) was -4%. The inhibition at 64 pM in test [1] (concentration 0.064 nM, read-out: Inhibition rate (%)) stood at 9%. Besides, the inhibition at 0.00032 µM in test [1] (concentration 0.32 nM, read-out: Inhibition rate (%)) was determined as 48%. The inhibition at 0.0016 µM in test [1] (concentration 1.6 nM, read-out: Inhibition rate (%)) was 84%. In addition, in test [1] (concentration 8 nM, read-out: Inhibition rate (%)), the inhibition at 0.008 µM was determined as 97%. Besides, in test [1] (concentration 0.04 μM, read-out: Inhibition rate (%)), the inhibition at 0.04 µM turned out to be 98%. Also, in test [1] (concentration 0.2 μM, read-out: Inhibition rate (%)), the inhibition at 0.2 µM stood at 97%. Further, in test [1] (concentration 1 μM, read-out: Inhibition rate (%)), the inhibition at 1 µM is 97%.
